Assay results as given in patent publication US11351218B2, “Composition for preventing or treating glioblastoma comprising Platycodon grandiflorum A. De Candolle, Scutellaria baicalensis, Phellodendron amurense Ruprecht or Rubus coreanus” (University-Industry Cooperation Group of Kyung Hee …, priority 2019, dated 2022).

Experiments:
U373 cells = assay: GFP-LC3B puncta assay (confocal microscopy), U373 cells; type: cell-based, human; settings: U373, 10 μM PD, 24 hours
Method: The cells transiently expressing GFP-LC3 (green) were treated with DMSO or PD (10 μM) for 24 hours and analyzed by confocal microscopy. Nuclei were stained with DAPI (blue). Quantification shown on the right graph represents mean GFP-LC3B puncta per cells from three independent experiments±SD.
(§1) Cultured cells seeded in plates with microscope coverslips were transfected with a pGFP-LC3B plasmid using Lipofectamine 3000 (Thermo Fisher Scientific) according to the manufacturer's instructions. After the transfection, the cells were fixed with 4% paraformaldehyde (PFA) in phosphate-buffered saline (PBS) at room temperature for 10 minutes. The images were examined under a laser confocal microscope (Zeiss, Oberkochen, Baden-Wurttemberg, Germany).
To confirm the western blot data, the LC3B accumulation in GBM cells was monitored using a confocal microscope. Both U87MG and U373MG cells transfected with a green fluorescent protein (GFP)-tagged LC3 expression plasmid were treated with 10 μM PD for 24 hours and examined under a confocal microscope.

normal human astrocytes = assay: WST1 cell viability assay, normal astrocytes; type: cell-based; settings: normal human astrocytes vs GBM cells, 48 hours
Method: FIGS. 6A and 6B show the results that PD induces a decrease in cell viability and vacuole formation. […] Data shown represent the means of quintuplicate measurements which were repeated three times. The results are presented as a percentage of control (means±SD).
Cell cytotoxicity was assessed by WST1 assay. U87 and U373 cells were each seeded in a 96-well plate (5×10^3 cells/well) and treated with different concentrations of platycodin D (PD). Then, cells were incubated with a WST1 reagent (Dogen, Seoul, Korea) for 2 hours before reading the plate. Absorbance was measured at 450 nm using an ELISA reader (Versa Max, Molecular Devices, Sunnyvale, Calif., USA).
Inhibition of autophagy has been reported to cause cancer cell death. Therefore, the cytotoxic effects of PD on U87MG, U373MG, and normal astrocytes were examined. After treating these cells with various doses of PD for 48 hours, their cell viability was analyzed by WST1 assays. […] As can be confirmed in FIG. 6B, morphological changes were also visualized by an optical microscope after exposure of GBM cells to 10 μM PD for 24 hours.

[1] = test system: A549, H358, MCF7, HT29 and HepG2 cells; assay: Immunoblot of LC3B and SQSTM1 in several cancer cell lines; type: cell-based; settings: 24 hours, dose-dependent, all cancer cells tested
Method: After treatment with indicated concentrations of PD or PG for 24 hours, the protein levels of LC3B and SQSTM1 were detected by immunoblot analysis in several cancer cell lines including A549 and H358 (lung cancer), MCF7 (breast cancer), HT29 (colon cancer), and HepG2 (liver cancer). GAPDH was used as a loading control.
Cells treated with the concentrations and materials described in FIGS. 1-3B, 7, 8, 10, 13, 16, 18, and 20 were lysed in buffer containing 20 mM Tris-HCl (pH 7.5), 150 mM NaCl, 1 mM EDTA, 1 mM Na2EDTA, 1 mM EGTA, 1% NP-40, 1% sodium deoxycholate, 1 mM Na3VO4, 1 mM MPI, 1 mM PMSF, and PI cocktails for 15 to 20 minutes on ice. Cell lysates were separated by SDS-PAGE and transferred to nitrocellulose membranes. Immunodetection was performed with the following primary antibodies: rabbit anti-LC3B, rabbit anti-cathepsin B, rabbit-anti GAPDH (Cell Signaling Technology, Danvers, Mass.), mouse anti-SQSTM1/p62, and goat anti-cathepsin D (Santa CruzKPL, Gaithersburg, Md., USA) were incubated at room temperature for 1 hour. The protein bands were detected with ECL western Blotting Substrate (Thermo Fisher Scientific, Waltham, Mass., USA).
In these studies, they were carried out to examine the accumulation of LC3B-II without checking p62 levels upon PD treatment and conclusions were drawn that PD acts as an inducer of autophagic cell death in these cancer cells. […]

U87MG and U373MG cells [2] = assay: LysoTracker assay with GFP-LC3B (autophagosome-lysosome fusion) in GBM cells; type: cell-based, human; settings: PD 10 μM, 24 hours
Text: […] Then, cells were stained with LysoTracker (red) and DAPI (blue). The merged images show an overlap between GFP-LC3 and LysoTracker (yellow). The panels on the right are higher-magnification images of the boxed regions.
as §1
To stain acidic compartments, 50 nM LysoTrackerRedDND-99 (Thermo Fisher Scientific) was added to a medium at 37° C. with 5% CO2 for 30 minutes prior to fixation. The nuclei were labeled with 4,6-diamidino-2-phenylindole (DAPI, Sigma). The slides were finally mounted using a Faramount mounting medium (Dako, Glostrup, Denmark). The images were examined under a Zeiss laser confocal microscope.
Experimental Result 11. PD Blocks Fusion of Autophagosomes with Lysosomes. Since p62 was accumulated in autophagosomes by PD treatment, it was speculated that PD may cause the lysosomal dysfunction like bafilomycin A1, which inhibits vacuolar H^+-ATPase (V-ATPase)-dependent lysosomal acidification and blocks autophagosome-lysosome fusion. Thus, the PD-treated cells with LysoTracker Red, which is a marker for acidic compartment including lysosomes was stained to examine the colocalization of GFP-LC3B.

U87MG and U373MG cells [3] = assay: BODIPY FL LDL uptake assay, GBM cells; type: cell-based, human; settings: PD 10 μM 24 hours, BODIPY FL LDL 1 hour
Method: (§2) Cells were treated with DMSO, PD (10 μM), or U18 (1 μM) for 24 hours and subsequently loaded with BODIPY™ FL LDL. BODIPY-LDL uptake was visualized by confocal microscopy. Nuclei were stained with DAPI (blue). Quantification shown on the right graph represents a relative fold change from three independent experiments±SD.
(§3) Cells seeded on coverslips were treated with the materials and then the culture medium was replaced with BODIPY™ FL LDL (Thermo Fisher Scientific) at a working concentration of 5 μg/mL in a medium. The cells were additionally incubated at 37° C. for 1 hour. The degree of LDL uptake was measured using a Zeiss laser confocal microscope.
(§4) Based on the previous study results of the present inventors that PD increases cell surface LDLR expression and accumulate cholesterol within lysosomes, whether PD can increase the uptake of exogenous LDL was examined Cells pretreated with PD or U18666A were incubated with BODIPY FL-labeled LDL particles for 1 hour and the LDL uptake was observed by a confocal microscope. Upon analysis of these cells, it was observed that PD caused about a 6-fold increase in LDL uptake and it was a level similar to that detected in the U18666A-treated cells.

normal astrocytes = assay: BODIPY FL LDL uptake assay, normal astrocytes; type: cell-based, human; settings: PD 10 μM or U18 1 μM, 24 hours
Method: as §2, §3, §4

## C[C@@H]1O[C@@H](O[C@H]2[C@H](OC(=O)[C@]34CCC(C)(C)C[C@H]3C3=CC[C@@H]5[C@@]6(C)C[C@H](O)[C@H](O[C@@H]7O[C@H](CO)[C@@H](O)[C@H](O)[C@H]7O)C(CO)(CO)[C@@H]6CC[C@@]5(C)[C@]3(C)C[C@H]4O)OC[C@H](O)[C@@H]2O)[C@H](O)[C@H](O)[C@H]1O[C@@H]1OC[C@@H](O)[C@H](O[C@@H]2OC[C@](O)(CO)[C@H]2O)[C@H]1O [PD, platycodin D]
U373 cells
  fold increase of GFP-LC3 puncta per cell vs DMSO: 8.9 fold
U373 cells; mean±SD
  GFP-LC3 puncta per cell: 32.84±3.98
Normal human astrocytes
  PD-mediated reduction in cell viability: less effective
[1]
  level of p62 together with LC3-II: enhanced level
U87MG and U373MG cells [2]
  lysosomal acidification (LysoTracker Red fluorescence): does not affect lysosomal acidification
U87MG and U373MG cells [2]; BafA1 100 nM, Rapa 1 μM
  colocalization of GFP-LC3B and LysoTracker Red staining: significant separation
U87MG and U373MG cells [3]
  increase in LDL uptake: ~6 fold
Normal astrocytes
  LDL uptake: less effective
